Test results: PMC5424428, “Characteristics of L-citrulline transport through blood-brain barrier in the brain capillary endothelial cell line (TR-BBB cells)” (Journal of Biomedical Science, 2017)
Values joined by “and” are separate entries in the source; they are usually repeats but may differ in a detail not shown here. Equal entries are not always repeated. “Also recorded” adds a separate entry of the source. Where two headings read alike, the source gives them in different places.

Assays:
[1] = tested on: TR-BBB cells; test: Inhibition of [14C]L-citrulline uptake in TR-BBB cells by unlabeled amino acids, transporter inhibitors and drugs; format: cell-based, rat; conditions: for activity at 2000 µM / IC50 / activity at 20000 µM: Rattus norvegicus; for activity at 2000 µM / IC50 / activity at 20000 µM / Uptake of [14C]L-citrulline (% of control) / Ki: 5 min; for Effect on [14C]L-citrulline uptake: unlabeled compound present; for Decrease of [14C]L-citrulline uptake: discussion of Table 3; for Mode of inhibition of [14C]L-citrulline uptake / Ki: Lineweaver-Burk plot; for Ki: 300 μM inhibitor
Procedure: (§1) The TR-BBB cells established from transgenic rats harboring the temperature-sensitive simian virus 40 large T-antigen, an in vitro BBB model, were cultured at 33 °C as described previously (21). TR-BBB cells were received from Professor Tetsuya Terasaki (Tohoku University, Japan) and were cultured with Dulbecco’s modified Eagle’s medium (Invitrogen, San Diego, CA), supplemented with 10% fetal bovine serum, 100 U/mL penicillin, 100 μg/mL streptomycin (Invitrogen, San Diego, CA) and 15 μg/L endothelial cell growth factor (Roche, Mannheim, Germany) at 33 °C in a humidified atmosphere of 5% CO2/air. On rat tail collagen type I-coated 24 well culture plates (IWAKI, Tokyo, Japan) initial seeding was carried out at 1 × 10^5 cells/well for the uptake study. After incubation for 2 days at 33 °C, the cultures became confluent and then they were used in the transport study. L-Citrulline free medium was used all experiments except for experiments on saturation kinetics of [^14C]L-citrulline uptake (Fig. 2), Lineweaver-Burk plots for [^14C]L-citrulline uptake (Fig. 4), or inhibitory effect of L-amino acids as a control (Table 2).
(§2) The [^14C] L-citrulline uptake study was performed according to the previous report. Briefly, extracellular fluid (ECF) buffer containing [^14C]L-citrulline (44.4 μM) in the presence or absence of unlabeled inhibitors was added to the TR-BBB cells and then incubated at pH 7.4 and 37 °C for the designated time (5 min). Uptake was terminated by the addition of ice-cold ECF buffer. A Na^+ free transport medium was prepared by using LiCl, choline chloride, sodium gluconate and KHCO3 instead of NaCl and NaHCO3, respectively. The cells were then solubilized by incubation overnight in 750 μL of 1 N NaOH at room temperature, and the measurement of radioactivity was performed in a liquid scintillation counter (LS6500; Beckman, Fullerton, CA). Cell to medium ratio (μL/mg protein) was calculated as follows: the radioactivity (dpm/μL) in the sample per milligram cell protein (dpm/mg protein).
To analyze the competitive nature of L-dopa and gabapentin for [^14C]L-citrulline uptake, Lineweaver-Burk plots were generated. The inhibitory constant (K i) was calculated from Eq. (2):2 V=Vmax⋅C/Km⋅1+I/Ki+C where I corresponds to the concentration of L-dopa or gabapentin, respectively.

[2] = tested on: TR-BBB cells; test: [14C]L-citrulline uptake study in TR-BBB cells (time course, ion dependence, saturation kinetics); format: in vitro ADME, rat; conditions: for Uptake of [14C]L-citrulline (% of control): ion dependence: Na+ and/or Cl- replaced in the uptake buffer by the named salt, mean ± S.E.M.
Procedure: as §1, §2
For kinetic studies, the Michaelis-Menten constant (K m) and the maximum uptake rate (V max) of [^14C] L-citrulline were estimated from Eq. (1):1 V=Vmax⋅C/Km+C
Where V and C are the initial uptake rate of [^14C] L-citrulline at 5 min and the concentration of L-citrulline, and V max is the maximum uptake rate for the saturable component.

[3] = pH 7.4, read-out: IC50 for inhibition of [14C]L-citrulline uptake
[4] = pH 7.4, read-out: Uptake of [14C]L-citrulline (% of control), Table 2, L-amino acid 2 mM, pH 7.4, 37 °C, mean ± S.E.M.
[5] = Table 2, L-amino acid 2 mM, pH 7.4, 37 °C, mean ± S.E.M., read-out: Uptake of [14C]L-citrulline (% of control)
[6] = Table 2, L-amino acid 2 mM, pH 7.4, 37 °C, mean ± S.E.M.
[7] = Table 4, drug 2 mM, pH 7.4, 37 °C, mean ± S.E.M., read-out: Uptake of [14C]L-citrulline (% of control)
[8] = TR-BBB cells, pH 7.4, 37 °C, read-out: IC50 for inhibition of [14C]L-citrulline uptake
[9] = Table 4, drug 0.5 mM, pH 7.4, 37 °C, mean ± S.E.M.
[10] = Table 2, L-amino acid 20 mM, pH 7.4, 37 °C, mean ± S.E.M.
[11] = Table 3, transporter inhibitor 2 mM, pH 7.4, 37 °C, mean ± S.E.M.

## N[C@@H](CCC(=O)O)C(=O)O [L-Glutamate]
[1]; pH 7.4, read-out: Uptake of [14C]L-citrulline (% of control)
  activity at 2000 µM: 103 ± 7.8%
[1]; TR-BBB cells
  Effect on [14C]L-citrulline uptake: did not inhibit

## N=C(N)NCCC[C@H](N)C(=O)O [L-Arginine]
[1]; [3]
  IC50: 33400 µM
[1]; [4]
  activity at 2000 µM: 59.9 ± 6.6%
[1]; pH 7.4, read-out: Uptake of [14C]L-citrulline (% of control), Table 2, L-amino acid 20 mM, pH 7.4, 37 °C, mean ± S.E.M.
  activity at 20000 µM: 53.2 ± 4.4%
[1]; TR-BBB cells
  Effect on [14C]L-citrulline uptake: significantly inhibited

## NC1(C(=O)O)CC2CCC1C2 (centres unmarked) [BCH, 2-aminobicyclo-(2,2,1)-heptane-2-carboxylic acid]
[1]; Table 3, transporter inhibitor 2 mM, pH 7.4, 37 °C, mean ± S.E.M., read-out: Uptake of [14C]L-citrulline (% of control)
  activity at 2000 µM: 25.3 ± 4.4%
[1]; Table 3, transporter inhibitor 20 mM, pH 7.4, 37 °C, mean ± S.E.M., read-out: Uptake of [14C]L-citrulline (% of control)
  activity at 20000 µM: 28.1 ± 11.6%
[1]; TR-BBB cells
  Effect on [14C]L-citrulline uptake: markedly inhibited
[1]
  Decrease of [14C]L-citrulline uptake: about 75%

## N[C@@H](CS)C(=O)O [L-Cysteine]
[1]; [5]
  activity at 2000 µM: 48.4 ± 2.6%
[1]; TR-BBB cells
  Effect on [14C]L-citrulline uptake: significantly inhibited

## N[C@@H](CC(=O)O)C(=O)O [L-Aspatate, L-aspartate]
[1]; TR-BBB cells
  Effect on [14C]L-citrulline uptake: did not inhibit
[1]; [6]
  Uptake of [14C]L-citrulline (% of control): 101.5 ± 8.6 % of control

## NCCc1ccc(O)c(O)c1 [Dopamine]
[1]; [7]
  activity at 2000 µM: 110 ± 2.7%
[1]; TR-BBB cells
  Effect on [14C]L-citrulline uptake: no effect; also recorded: no significant effects

## CC(C)[C@H](N)C(=O)O [L-Valine]
[1]; [6]
  Uptake of [14C]L-citrulline (% of control): 31.5 ± 1.4 % of control

## N[C@@H](Cc1ccc(O)c(O)c1)C(=O)O [L-Dopa]
[1]
  Mode of inhibition of [14C]L-citrulline uptake: competitively inhibited
[1]; pH 7.4, 37 °C
  Ki: 486 µM
[1]; [8]
  IC50: 501 µM
[1]; TR-BBB cells
  Effect on [14C]L-citrulline uptake: strongly inhibited; also recorded: significantly inhibited
[1]; [9]
  Uptake of [14C]L-citrulline (% of control): 52.1 ± 6.6 % of control
[1]; Table 4, drug 2 mM, pH 7.4, 37 °C, mean ± S.E.M.
  Uptake of [14C]L-citrulline (% of control): 21.6 ± 2.8 % of control

## O=C([O-])[C@H](O)[C@@H](O)[C@H](O)[C@H](O)CO.[Na+] [Sodium gluconate, sodium gluconate]
[2]; pH 7.4, 37 °C, 5 min
  Uptake of [14C]L-citrulline (% of control): 103.9 ± 6.8 % of control

## COc1ccc2c3c([nH]c2c1)C(C)=NCC3 [Harmaline]
[1]
  Decrease of [14C]L-citrulline uptake: about 40%

## C=C[C@H]1C[N@@]2CC[C@H]1C[C@@H]2[C@@H](O)c1ccnc2ccc(OC)cc12 [Qunidine, Quinidine]
[1]; 500 µM
  Uptake of [14C]L-citrulline (% of control): 52.5 ± 3.0 % of control
[1]; TR-BBB cells
  Effect on [14C]L-citrulline uptake: significantly inhibited

## CC(C)C[C@H](N)C(=O)O [L-Leucine]
[1]; [6]
  Uptake of [14C]L-citrulline (% of control): 49.4 ± 5.8 % of control
[1]; [10]
  Uptake of [14C]L-citrulline (% of control): 17.2 ± 3.9 % of control

## NCCS(=O)(=O)O [Taurine]
[1]; [7]
  activity at 2000 µM: 90.5 ± 4.4%
[1]; TR-BBB cells
  Effect on [14C]L-citrulline uptake: no significant effects

## NC(=O)NCCC[C@H](N)C(=O)O [L-Citrulline]
[1]; [4]
  activity at 2000 µM: 36 ± 2.1%
[2]; 44.4 μM, 37 °C, ECF buffer
  Time-course of [14C]L-citrulline uptake: linear for 5 min
[2]; absence of Na+ or Cl- in the uptake buffer
  Ion dependence of [14C]L-citrulline uptake: no significant difference
[2]; first (Km1) of two saturable components, 0–5 mM unlabeled L-citrulline, 5 min, pH 7.4, 37 °C
  Michaelis-Menten constant Km1 of [14C]L-citrulline uptake: 30.9 ± 1.0 µM and 30.9 µM
[2]; first saturable component, 5 min, pH 7.4, 37 °C
  Vmax1 of [14C]L-citrulline uptake: 185 nmol/mg/min
[2]; second (Km2) of two saturable components, 0–5 mM unlabeled L-citrulline, 5 min, pH 7.4, 37 °C
  Michaelis-Menten constant Km2 of [14C]L-citrulline uptake: 1.69 ± 0.43 mM and 1.69 mM
[2]; second saturable component, 5 min, pH 7.4, 37 °C
  Vmax2 of [14C]L-citrulline uptake: 3.19 µmol/mg/min

## NCCCC[C@H](N)C(=O)O [L-Lysine]
[1]; TR-BBB cells
  Effect on [14C]L-citrulline uptake: significantly inhibited
[1]; [6]
  Uptake of [14C]L-citrulline (% of control): 74.5 ± 9.0 % of control
[1]; [10]
  Uptake of [14C]L-citrulline (% of control): 66.78 ± 2.1 % of control

## CN1C(=O)C=CC1=O [Methylmaleimide, L-methylmaleimide]
[1]; TR-BBB cells
  Effect on [14C]L-citrulline uptake: no inhibition effect
[1]; [11]
  Uptake of [14C]L-citrulline (% of control): 103.2 ± 10.1 % of control

## Nc1c2c(nc3ccccc13)CCCC2 [tacrine]
[1]; TR-BBB cells
  Effect on [14C]L-citrulline uptake: no significant inhibition effect

## CNC(C)(C)C(=O)O [MeAIB, N-(methylamino) isobutyric acid]
[1]; TR-BBB cells
  Effect on [14C]L-citrulline uptake: no inhibition effect
[1]; [11]
  Uptake of [14C]L-citrulline (% of control): 99.8 ± 6.3 % of control

## C[N+](C)(C)CCO.[Cl-] [Choline Chloride, choline chloride]
[2]; pH 7.4, 37 °C, 5 min
  Uptake of [14C]L-citrulline (% of control): 83.3 ± 5.7 % of control

## NC(=O)CC[C@H](N)C(=O)O [L-Glutamine]
[1]; [5]
  activity at 2000 µM: 37.5 ± 1.3%

## N[C@@H](CO)C(=O)O [L-Serine]
[1]; [5]
  activity at 2000 µM: 79.7 ± 2.5%
[1]; TR-BBB cells
  Effect on [14C]L-citrulline uptake: significantly inhibited

## NC(N)=NCCCC[C@H](N)C(=O)O [Homoarginine]
[1]; TR-BBB cells
  Effect on [14C]L-citrulline uptake: no inhibition effect
[1]; [11]
  Uptake of [14C]L-citrulline (% of control): 95.98 ± 13.8 % of control

## NCC1(CC(=O)O)CCCCC1 [Gabapentin]
[1]
  Mode of inhibition of [14C]L-citrulline uptake: competitively inhibited
[1]; pH 7.4, 37 °C
  Ki: 679 µM
[1]; [3]
  IC50: 223 µM
[1]; TR-BBB cells
  Effect on [14C]L-citrulline uptake: strongly inhibited; also recorded: significantly inhibited
[1]; [9]
  Uptake of [14C]L-citrulline (% of control): 45.0 ± 2.52 % of control
[1]; Table 4, drug 5 mM, pH 7.4, 37 °C, mean ± S.E.M.
  Uptake of [14C]L-citrulline (% of control): 29.6 ± 2.73 % of control

## [Cl-].[Li+] [LiCl]
[2]; pH 7.4, 37 °C, 5 min
  Uptake of [14C]L-citrulline (% of control): 116.2 ± 5.2 % of control

## C[C@H](N)C(=O)O [L-Alanine]
[1]; TR-BBB cells
  Effect on [14C]L-citrulline uptake: significantly inhibited
[1]; [6]
  Uptake of [14C]L-citrulline (% of control): 73.0 ± 6.4 % of control

## N[C@@H](Cc1ccccc1)C(=O)O [L-Phenylalanine]
[1]; [8]
  IC50: 68.9 µM
[1]; TR-BBB cells
  Effect on [14C]L-citrulline uptake: strongly inhibited
[1]; [6]
  Uptake of [14C]L-citrulline (% of control): 13.7 ± 1.8 % of control
[1]; [10]
  Uptake of [14C]L-citrulline (% of control): 13.4 ± 1.4 % of control
